Values belong to the molecule of their own block, whether it stands above or below them.
Experiments:
[1] = tested on: laccase; assay: Chicago Blue assay: mediator-enhanced laccase-catalyzed bleaching of Chicago Blue in solution; type: biochemical, Aspergillus; conditions: decrease in absorbance of Chicago Blue at 610 nm after 3 min, mediator (0.1 umole/ml); for ΔmA610 (3 min) at pH 5.5: pH 5.5, laccase; for ΔmA610 (3 min) at pH 7.0: pH 7.0, laccase
Description: In this example, the pro-oxidants and pro-degradants were tested individually as mediators to enhance laccase-catalyzed bleaching of Chicago Blue in solution. The Chicago Blue Dye, also known as Direct Blue 1 or DB1, is a commonly used assay for the oxidative efficiency of laccase. The Chicago Blue Dye is fully described by Schneider et al. in U.S. Pat. No. 5,885,304, which is hereby incorporated by reference.
Each of the compounds (i.e., potential mediators) was dissolved in water, or in ethanol if the potential mediator was not water soluble, and then mixed with a phosphate buffer and a Chicago Blue solution. A solution of a laccase was added to make up 1 ml of the final solution, containing […] mediator, 20 mM buffer at pH 5.5 or 7.0, 0.1-1% laccase (v/v) and Chicago Blue solution, with absorbance at A610 nm between 0.6 to 0.8. The change in the absorbance at A610 nm was measured immediately using a UV-VIS spectrophotometer (UV-1201, Shimadzu Scientific Instruments) after the enzyme was added. The decrease in absorbance was recorded at 30-second intervals for 5 minutes and was used to estimate the efficiency of the mediator.

[2] = tested on: laccase (NS51003); assay: Pulp bleaching with laccase and mediators, delignification measured as change in Kappa number (TAPPI T236 cm-85); design: species or system Aspergillus
Description: Delignification of the pulp was measured as the change in Kappa number according to TAPPI method T236 cm-85. Briefly, a known mass of paper pulp (containing lignin) was reacted with an excess of potassium permanganate in acid solution for a specified period of time to oxidize the lignin. After the reaction, the residual permanganate was determined by titration. The Kappa number was defined as the volume (ml) of 0.1N potassium permanganate consumed by 1 g of moisture-free pulp in 0.5N sulfuric acid after a ten-minute reaction time at 25° C. under conditions such that one-half of the permanganate remains unreacted. A linear relationship with the lignin content of the pulp and the measurement of the Kappa number has been done on samples as low as 300 mg of pulp.
A softwood Kraft pulp, Kappa number 31.0, was treated with a laccase (NS51003) under the following conditions:
The dried pulp was added to 80 ml of 50 mM phosphate, pH 5.5, and disintegrated in a blender. The pulp was then transferred to a 500-ml conical flask and the blender was washed with 20 ml of the same buffer. The washed buffer and the pulp were combined. The mediator was added at 1-4% (w/w, based on the dry pulp) followed by the addition of the laccase. The pH of the pulp mixture was adjusted to 5.5 if needed. […]
The delignification of the pulp was measured as the change in the Kappa number according to TAPPI method T236 cm-85.

Compound: O=C(O)c1ccccc1O [Salicylic acid, salicylic acid]
ΔmA610 (3 min) at pH 5.5 [1]: 11

Compound: O=C1O[C@H]([C@@H](O)CO)C(O)=C1O [Ascorbic acid, ascorbic acid]
ΔmA610 (3 min) at pH 5.5 [1]: 6 | ΔmA610 (3 min) at pH 7.0 [1]: 2

Compound: O=C(O)c1cccnc1 [Nicotinic acid, nicotinic acid]
ΔmA610 (3 min) at pH 5.5 [1]: 0 | ΔmA610 (3 min) at pH 7.0 [1]: 0

Compound: NC(N)=O [Urea, urea]
ΔmA610 (3 min) at pH 5.5 [1]: 1 | ΔmA610 (3 min) at pH 7.0 [1]: 0 | activity in enhancing bleaching (in words) ([2]; pulp bleaching with laccase, Examples 2-6): barely active

Kappa number reduction (in words) ([2]; 0.1 ml of the 51003 laccase with the mediator): modest Kappa number reduction
Compound: On1nnc2ccccc21 [HBT, 1-hydroxybenzotriazole, reference compound]
